Results on 19 compounds are retold here after PubChem BioAssay (NCI).

SMILES strings stand for the structures.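 Tested at 5 concentrations; 48 h exposure; 96-well plates; endpoints linearly interpolated, else capped at highest concentration. GI50 = concentration required for 50% inhibition of growth. TGI marks complete inhibition of growth.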

Test in all cases: growth of human tumour cells (NCI), 48 h
Experiment [1] deals with 786-0 renal.
Experiment [2] has as its system IGROV1 ovarian.
For experiment [3], the system named is RXF 393 renal.
Experiment [4] concerns SF-268 CNS.
Experiment [5] concerns EKVX NSCLC.
In experiment [6] the test system is CAKI-1 renal.
For experiment [7], the system named is NCI-H460 lung.
Experiment [8] has as its system SF-539 CNS.
In experiment [9] the test system is HCT-15 colon.
The subject of experiment [10] is KM12 colon.

`O=[N+]([O-])c1ccc(-c2nc(-c3ccccc3)c(-c3ccccc3)n2-c2ccccc2)cc1`: the GI50 in experiment [1] is 4.82 µM; in experiment [2], 2.42 µM; in [3], 3.08 µM; in experiment [4], 3.7 µM; in experiment [5], 2.93 µM; in experiment [6] it was 3.04 µM. In addition, the GI50 was 2.43 µM in experiment [7], 2.02 µM in experiment [8], 2.82 µM in [9] and 2.3 µM in [10]. In addition, the TGI in experiment [1] is 22.3 µM; in [2], 7.28 µM; in experiment [3], 9.78 µM; in experiment [4] it was 17.6 µM; in experiment [5], greater than 26.6 µM; in experiment [6] it was greater than 28.4 µM. Besides, the TGI in [7] came out at 7.06 µM; in experiment [8] it was 4.78 µM; in experiment [9], 8.76 µM; in [10], 5.6 µM.

As to `Cc1cccc(Oc2nccc(-c3c(-c4ccc(F)cc4)ncn3C3CCNCC3)n2)c1C`, the GI50 in experiment [1] was 8.22 µM; in [2], 6.76 µM; in experiment [3], 3.53 µM; in experiment [4] it was 13.3 µM; in experiment [5], greater than 14 µM; in experiment [6], 8.79 µM. Also, the GI50 was 6.24 µM in experiment [7], 4.84 µM in experiment [8], 8.12 µM in experiment [9] and 11.2 µM in [10]. For the same compound, the TGI in experiment [1] was greater than 18 µM; in experiment [2] it was greater than 16.7 µM; in [3], 9.17 µM; in [4], greater than 25 µM; in [5] it was greater than 25 µM; in experiment [6], greater than 19.8 µM. Further, the TGI in experiment [7] is greater than 15 µM; in [8], 10.4 µM; in [9] it was greater than 25 µM; in experiment [10] it was greater than 23.8 µM.

Consider `CC(C)c1ccccc1NC(=O)C(=O)Cc1nc2ccccc2s1`, for which the TGI in experiment [1], in experiment [2], in [3], in experiment [4], in [5] and in [6] was greater than 100 µM each time. For the same compound, the TGI in experiment [7], in experiment [8], in experiment [9] and in experiment [10] was greater than 100 µM each time.

With `Cc1ccc(NC(=O)c2cccc([N+](=O)[O-])c2O)c([N+](=O)[O-])c1`, the TGI was 37 µM in experiment [1]; 44.9 µM in experiment [2]; 23.6 µM in experiment [3]; 54.9 µM in experiment [4]; 48.4 µM in [5]; greater than 100 µM in [6]. In addition, the TGI in [7] is 18.9 µM; in experiment [8], 34.3 µM; in [9], 31.8 µM; in experiment [10], 23 µM.

As to `COc1ccc(/C(Cl)=C(\C=O)c2ccc([N+](=O)[O-])cc2)cc1OC`, the TGI was 20.1 µM in experiment [1]; 38.6 µM in experiment [2]; 19.2 µM in experiment [3]; 29.4 µM in experiment [4]; greater than 59.7 µM in [5]; 26.4 µM in experiment [6]. In addition, the TGI in experiment [7] was 34 µM; in [8], 30.8 µM; in experiment [9], 23.7 µM; in experiment [10], 94.4 µM.

Regarding `NS(=O)(=O)c1cc2c(cc1Cl)NC(Cc1ccccc1)NS2(=O)=O` (stereo not drawn), the TGI in experiment [1], in experiment [2], in experiment [3], in experiment [4], in experiment [5] and in [6] was greater than 100 µM throughout. Also, the TGI in [7], in experiment [8], in [9] and in [10] was greater than 100 µM throughout.

On to `NC(CSC(c1ccccc1)(c1ccccc1)c1ccc(Cl)cc1)C(=O)O` (stereo not drawn), for which the GI50 in [1] is 1.36 µM; in experiment [2], 0.355 µM; in [3], 0.0594 µM; in experiment [4] it was 0.399 µM; in experiment [5], 0.342 µM; in [6], 0.37 µM. Also, the GI50 was 0.342 µM in [7], 0.148 µM in experiment [8], 0.362 µM in experiment [9] and 0.322 µM in [10]. The TGI in [1] was 30 µM; in experiment [2], 34.1 µM; in experiment [3] it was 4.52 µM; in [4], 26.5 µM; in experiment [5] it was greater than 33.9 µM; in experiment [7], 12.9 µM. In addition, the TGI in experiment [8] was 2.87 µM; in [9] it was 52.9 µM; in [10], 15.1 µM.

For `ClC1=C(Cl)C(Cl)=C(Cl)C1=C/C=C/c1ccccc1`, the GI50 in experiment [1] was 0.444 µM; in [3], 0.186 µM; in experiment [4], 0.261 µM; in experiment [5], 0.215 µM; in [6], 0.198 µM; in experiment [7] it was 0.326 µM. Moreover, the GI50 in experiment [8] is 0.206 µM; in experiment [9], 0.179 µM; in experiment [10] it was 0.272 µM. In addition, the TGI in [1] was determined as 2.05 µM; in experiment [2] it was 0.0455 µM; in experiment [3], 0.36 µM; in experiment [4], 1.51 µM; in experiment [5] it was 1.23 µM; in experiment [6] it was 0.561 µM. Also, the TGI turned out to be 2.3 µM in [7], 0.699 µM in experiment [8], 0.391 µM in experiment [9] and 0.684 µM in experiment [10].

Take `C=C1C[C@](OC)([C@H](O)C(=O)N[C@@H](OC)[C@@H]2C[C@@H](O)C(C)(C)[C@@H](C[C@@H](COC)OC)O2)O[C@H](C)[C@@H]1C`: the GI50 in experiment [1] is 0.0022 µM; in [2], 0.00295 µM; in [3], 0.00159 µM; in experiment [4] it was 0.00195 µM; in [5] it was 0.00162 µM; in [6], 0.00184 µM. The GI50 in [7] is 0.00072 µM; in experiment [8], 0.000166 µM; in [9], 0.00284 µM; in [10] it was 0.000861 µM. The TGI in experiment [1] is 0.0119 µM; in experiment [2], 0.0161 µM; in experiment [3], 0.00465 µM; in [4], 0.00538 µM; in [5], 0.00667 µM; in [6], 0.00544 µM. The TGI in experiment [7] came to 0.00266 µM; in experiment [8] it was 0.00213 µM; in experiment [9] it was 0.0248 µM; in [10], 0.00339 µM.

For `OCCCN=NNc1ccc(-c2nc3ccccc3[nH]2)cc1`, the GI50 in experiment [1] was 17 µM; in experiment [2] it was 5.26 µM; in experiment [3], 4.06 µM; in experiment [4] it was 6.16 µM; in experiment [5], 15.5 µM; in [6], 15.4 µM. Also, the GI50 is 4.65 µM in experiment [7], 5.97 µM in experiment [8], 4.43 µM in experiment [9] and 5.12 µM in experiment [10]. The TGI in [1] is 46.7 µM; in [2], 45.8 µM; in experiment [3], 18 µM; in [4], 32.1 µM; in experiment [5], 52.6 µM; in [6], 39.3 µM. The TGI in experiment [7] was greater than 100 µM; in experiment [8], 28.4 µM; in [9] it was greater than 100 µM; in experiment [10] it was 24.9 µM.

As for `CCOC(=O)C(=O)Nc1ccc(C)cc1C`, the TGI in experiment [1], in experiment [2], in experiment [3], in experiment [4], in experiment [5] and in [6] was greater than 100 µM in each case. In addition, the TGI in [7], in experiment [8], in experiment [9] and in [10] was greater than 100 µM in each case.

In the case of `CCn1cc(/C=C/C(C)c2cn(CC)c(=O)[nH]c2=O)c(=O)[nH]c1=O` (stereo not drawn), the TGI in experiment [1], in experiment [2], in experiment [3], in experiment [4], in [5] and in experiment [6] was greater than 100 µM each time. The TGI in experiment [7], in experiment [8], in [9] and in [10] was greater than 100 µM throughout.

As to `CCCCCCCCCCCCCCCCCC1=NCCN1CS(=O)(=O)O`, the GI50 in experiment [1] is 17.7 µM; in experiment [2], 3.9 µM; in [3] it was 15.4 µM; in experiment [4] it was 13.9 µM; in experiment [5], 11.4 µM; in experiment [6], 9.3 µM. Further, the GI50 was 3.24 µM in [7], 19.4 µM in experiment [8], 4.49 µM in [9] and 2.78 µM in experiment [10]. The TGI is 35.3 µM in experiment [1]; 14.1 µM in [2]; 35.6 µM in experiment [3]; 30.2 µM in experiment [4]; 25 µM in experiment [5]; 22.6 µM in experiment [6]. The TGI in experiment [7] came to 8.39 µM; in experiment [8] it was 46.8 µM; in experiment [9] it was 23.5 µM; in [10], 8.49 µM.

As for `COc1ccccc1-n1c(-c2cc(O)ccc2C)cn2c3c(=O)[nH]c(=O)n(C)c3nc12`, the GI50 in experiment [1] is 6.24 µM; in experiment [2] it was 3.52 µM; in [3], 0.872 µM; in experiment [4] it was 5.07 µM; in experiment [5] it was 10.1 µM; in experiment [6], 2.95 µM. For the same compound, the GI50 in [7] is greater than 100 µM; in experiment [8], 8.86 µM; in [9] it was 54.7 µM; in experiment [10], greater than 100 µM. Moreover, the TGI in experiment [1] is greater than 100 µM; in [2], 13.9 µM; in [3], 4.11 µM; in experiment [4] it was greater than 100 µM; in experiment [5], greater than 100 µM; in experiment [6] it was 7.05 µM. The TGI in experiment [7], in [8], in experiment [9] and in [10] was greater than 100 µM in each case.

On to `CC(C)[C@@]12C[C@@H](OC(=O)[C@H]3CO3)[C@@](C)(O1)[C@@H]1CC[C@@H](C)[C@H]1[C@@H]2OC(=O)/C=C/c1ccccc1`, for which the GI50 in experiment [1] was 3.55 µM; in [2] it was 23.7 µM; in [3], 1.3 µM; in [4], 0.777 µM; in experiment [5], 16.3 µM; in experiment [6] it was 6.83 µM. Moreover, the GI50 in experiment [7] is 17.2 µM; in experiment [8], 17.5 µM; in [9] it was 11.1 µM; in experiment [10], 19.1 µM. Moreover, the TGI in [1] is 22 µM; in [2] it was greater than 83.4 µM; in experiment [3], 17.8 µM; in [4], greater than 81.2 µM; in experiment [5], greater than 75.6 µM; in [6], greater than 100 µM. The TGI is 42.5 µM in experiment [7], 43.3 µM in experiment [8], greater than 100 µM in [9] and greater than 60 µM in experiment [10].

`COc1ccc(C2=NNC(=O)OC2c2ccccc2)cc1` (stereo not drawn): the TGI in [1], in experiment [2], in [3], in [4], in experiment [5] and in experiment [6] was greater than 100 µM throughout. Besides, the TGI in [7], in [8], in experiment [9] and in experiment [10] was greater than 100 µM throughout.

As for `Cc1cc2c(=O)n(-c3ccc(F)cc3)c(C)nc2c(C(=O)O)c1C`, the TGI in experiment [1], in experiment [2], in [3], in experiment [4], in experiment [5] and in experiment [6] was greater than 100 µM each time. Further, the TGI in experiment [7], in experiment [8], in experiment [9] and in experiment [10] was greater than 100 µM in each case.

For the compound `CC(C)(C)[Si](C)(C)OCC1OC(n2cnc3c(NC(=O)c4ccccc4)ncnc32)CC1O` (stereo not drawn), the TGI is 38.6 µM in [1]; 91.3 µM in [2]; 40.4 µM in experiment [3]; greater than 100 µM in [4]; greater than 100 µM in experiment [5]; greater than 100 µM in [6]. In addition, the TGI in experiment [7] is greater than 100 µM; in experiment [8], 41 µM; in experiment [9], greater than 100 µM; in experiment [10], 87.4 µM.

`O=C(CO)CC(=O)C(=O)Nc1nc([N+](=O)[O-])cs1`: the TGI in [1], in experiment [2], in [3], in [4], in experiment [5] and in [6] was greater than 100 µM throughout. The TGI in experiment [7], in experiment [8], in [9] and in experiment [10] was greater than 100 µM in each case.
